{"source": "PubChem BioAssay AID248", "about": "(DTP/NCI, 2004)", "system": "L1210 leukemia ip in BDF1 mice, survival T/C", "test": "NCI In Vivo Anticancer Drug Screen. Data for tumor model L1210 Leukemia (intraperitoneal) in B6D2F1 (BDF1) mice", "conditions": "endpoint: mean survival time, higher = longer survival", "how_it_was_run": "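Tumor was transplanted into mice, which were then dosed with test compound or vehicle alone. Survival was recorded for each group, and the treated figure was expressed relative to the control figure.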", "note": "“And” between values parts separate entries of the source, which are not always exact repeats. Equal entries are not always repeated. Toxic doses and inconclusive results are not listed.", "data": [{"smiles": "CC(=O)OCC1OC(n2ccc(N)nc2=O)C(OC(C)=O)C1OC(C)=O", "note": "(stereo not drawn)", "values": [{"measurement": "T/C", "setting": "dose: 6.3 mg/kg/injection, schedule: Q01DX015 (oral), vehicle: carboxymethylcellulose (CMC)", "value": "117 % of control"}, {"measurement": "T/C", "setting": "dose: 6.6 mg/kg/injection, schedule: Q03HX024 (ip), vehicle: carboxymethylcellulose (CMC)", "value": "156 % of control"}, {"measurement": "T/C", "setting": "dose: 10.0 mg/kg/injection, schedule: Q01DX015 (ip), vehicle: saline", "value": "101 % of control"}, {"measurement": "T/C", "setting": "dose: 11.0 mg/kg/injection, schedule: Q03HX008 (ip), vehicle: carboxymethylcellulose (CMC)", "value": "121 % of control"}, {"measurement": "T/C", "setting": "dose: 11.0 mg/kg/injection, schedule: Q03HX024 (ip), vehicle: carboxymethylcellulose (CMC)", "value": "184 % of control"}, {"measurement": "T/C", "setting": "dose: 12.5 mg/kg/injection, schedule: Q01DX015 (oral), vehicle: carboxymethylcellulose (CMC)", "value": "116 % of control"}, {"measurement": "T/C", "setting": "dose: 15.0 mg/kg/injection, schedule: Q01DX015 (ip), vehicle: saline", "value": "117 % of control"}, {"measurement": "T/C", "setting": "dose: 18.0 mg/kg/injection, schedule: Q03HX024 (ip), vehicle: carboxymethylcellulose (CMC)", "value": "207 % of control"}, {"measurement": "T/C", "setting": "dose: 23.0 mg/kg/injection, schedule: Q01DX015 (ip), vehicle: saline", "value": "124 % of control"}, {"measurement": "T/C", "setting": "dose: 25.0 mg/kg/injection, schedule: Q01DX015 (oral), vehicle: carboxymethylcellulose (CMC)", "value": "122 % of control"}, {"measurement": "T/C", "setting": "dose: 30.0 mg/kg/injection, schedule: Q03HX024 (ip), vehicle: carboxymethylcellulose (CMC)", "value": "246 % of control"}, {"measurement": "T/C", "setting": "dose: 35.0 mg/kg/injection, schedule: Q01DX015 (ip), vehicle: saline", "value": "150 % of control and 168 % of control"}, {"measurement": "T/C", "setting": "dose: 37.0 mg/kg/injection, schedule: Q01DX009 (oral), vehicle: water", "value": "123 % of control"}, {"measurement": "T/C", "setting": "dose: 37.0 mg/kg/injection, schedule: Q## X024 (oral), vehicle: water", "value": "100 % of control"}, {"measurement": "T/C", "setting": "dose: 50.0 mg/kg/injection, schedule: Q01DX009 (ip), vehicle: saline", "value": "153 % of control"}, {"measurement": "T/C", "setting": "dose: 50.0 mg/kg/injection, schedule: Q01DX009 (ip), vehicle: water", "value": "171 % of control"}, {"measurement": "T/C", "setting": "dose: 50.0 mg/kg/injection, schedule: Q01DX009 (sc), vehicle: water", "value": "158 % of control"}, {"measurement": "T/C", "setting": "dose: 51.0 mg/kg/injection, schedule: Q01DX009 (ip), vehicle: carboxymethylcellulose (CMC)", "value": "180 % of control"}, {"measurement": "T/C", "setting": "dose: 51.0 mg/kg/injection, schedule: Q03HX008 (ip), vehicle: carboxymethylcellulose (CMC)", "value": "157 % of control"}, {"measurement": "T/C", "setting": "dose: 55.0 mg/kg/injection, schedule: Q01DX015 (ip), vehicle: saline", "value": "201 % of control"}, {"measurement": "T/C", "setting": "dose: 75.0 mg/kg/injection, schedule: Q01DX005 (oral), vehicle: water", "value": "121 % of control"}, {"measurement": "T/C", "setting": "dose: 75.0 mg/kg/injection, schedule: Q01DX009 (oral), vehicle: water", "value": "117 % of control"}, {"measurement": "T/C", "setting": "dose: 86.0 mg/kg/injection, schedule: Q01DX009 (ip), vehicle: carboxymethylcellulose (CMC)", "value": "213 % of control"}, {"measurement": "T/C", "setting": "dose: 100.0 mg/kg/injection, schedule: Q01DX005 (ip), vehicle: saline", "value": "154 % of control and 164 % of control"}, {"measurement": "T/C", "setting": "dose: 100.0 mg/kg/injection, schedule: Q01DX009 (ip), vehicle: saline", "value": "222 % of control"}, {"measurement": "T/C", "setting": "dose: 100.0 mg/kg/injection, schedule: Q01DX009 (ip), vehicle: water", "value": "235 % of control"}, {"measurement": "T/C", "setting": "dose: 100.0 mg/kg/injection, schedule: Q01DX009 (sc), vehicle: water", "value": "205 % of control"}, {"measurement": "T/C", "setting": "dose: 100.0 mg/kg/injection, schedule: Q01DX011 (oral), vehicle: water", "value": "156 % of control and 175 % of control"}, {"measurement": "T/C", "setting": "dose: 125.0 mg/kg/injection, schedule: Q01DX015 (ip), vehicle: saline", "value": "314 % of control"}, {"measurement": "T/C", "setting": "dose: 150.0 mg/kg/injection, schedule: Q01DX001 (ip), vehicle: water", "value": "114 % of control"}, {"measurement": "T/C", "setting": "dose: 150.0 mg/kg/injection, schedule: Q01DX001 (sc), vehicle: water", "value": "150 % of control"}, {"measurement": "T/C", "setting": "dose: 150.0 mg/kg/injection, schedule: Q01DX005 (oral), vehicle: water", "value": "112 % of control"}, {"measurement": "T/C", "setting": "dose: 150.0 mg/kg/injection, schedule: Q## X003 (oral), vehicle: water", "value": "120 % of control"}, {"measurement": "T/C", "setting": "dose: 150.0 mg/kg/injection, schedule: Q## X024 (oral), vehicle: water", "value": "104 % of control and 113 % of control"}, {"measurement": "T/C", "setting": "dose: 200.0 mg/kg/injection, schedule: Q01DX005 (ip), vehicle: saline", "value": "190 % of control and 198 % of control"}, {"measurement": "T/C", "setting": "dose: 200.0 mg/kg/injection, schedule: Q01DX009 (ip), vehicle: saline", "value": "109 % of control"}, {"measurement": "T/C", "setting": "dose: 200.0 mg/kg/injection, schedule: Q01DX009 (ip), vehicle: water", "value": "88 % of control"}, {"measurement": "T/C", "setting": "dose: 200.0 mg/kg/injection, schedule: Q01DX009 (sc), vehicle: water", "value": "95 % of control"}, {"measurement": "T/C", "setting": "dose: 200.0 mg/kg/injection, schedule: Q01DX011 (oral), vehicle: water", "value": "201 % of control"}, {"measurement": "T/C", "setting": "dose: 250.0 mg/kg/injection, schedule: Q01DX001 (ip), vehicle: saline", "value": "116 % of control"}, {"measurement": "T/C", "setting": "dose: 250.0 mg/kg/injection, schedule: Q01DX015 (ip), vehicle: saline", "value": "86 % of control"}, {"measurement": "T/C", "setting": "dose: 300.0 mg/kg/injection, schedule: Q01DX001 (ip), vehicle: water", "value": "118 % of control"}, {"measurement": "T/C", "setting": "dose: 300.0 mg/kg/injection, schedule: Q01DX001 (oral), vehicle: water", "value": "103 % of control and 108 % of control"}, {"measurement": "T/C", "setting": "dose: 300.0 mg/kg/injection, schedule: Q01DX005 (oral), vehicle: water", "value": "184 % of control"}, {"measurement": "T/C", "setting": "dose: 300.0 mg/kg/injection, schedule: Q01DX009 (oral), vehicle: water", "value": "167 % of control"}, {"measurement": "T/C", "setting": "dose: 300.0 mg/kg/injection, schedule: Q07DX004 (oral), vehicle: water", "value": "103 % of control"}, {"measurement": "T/C", "setting": "dose: 300.0 mg/kg/injection, schedule: Q## X006 (oral), vehicle: water", "value": "108 % of control"}, {"measurement": "T/C", "setting": "dose: 300.0 mg/kg/injection, schedule: Q## X008 (oral), vehicle: water", "value": "112 % of control"}, {"measurement": "T/C", "setting": "dose: 300.0 mg/kg/injection, schedule: Q## X024 (oral), vehicle: water", "value": "113 % of control"}, {"measurement": "T/C", "setting": "dose: 400.0 mg/kg/injection, schedule: Q01DX011 (oral), vehicle: water", "value": "179 % of control"}, {"measurement": "T/C", "setting": "dose: 600.0 mg/kg/injection, schedule: Q01DX001 (oral), vehicle: water", "value": "108 % of control and 114 % of control"}, {"measurement": "T/C", "setting": "dose: 600.0 mg/kg/injection, schedule: Q01DX005 (oral), vehicle: water", "value": "153 % of control"}, {"measurement": "T/C", "setting": "dose: 600.0 mg/kg/injection, schedule: Q01DX009 (oral), vehicle: water", "value": "185 % of control"}, {"measurement": "T/C", "setting": "dose: 600.0 mg/kg/injection, schedule: Q07DX004 (oral), vehicle: water", "value": "107 % of control"}, {"measurement": "T/C", "setting": "dose: 600.0 mg/kg/injection, schedule: Q## X003 (oral), vehicle: water", "value": "153 % of control"}, {"measurement": "T/C", "setting": "dose: 600.0 mg/kg/injection, schedule: Q## X006 (oral), vehicle: water", "value": "114 % of control"}, {"measurement": "T/C", "setting": "dose: 600.0 mg/kg/injection, schedule: Q## X024 (oral), vehicle: water", "value": "120 % of control"}, {"measurement": "T/C", "setting": "dose: 660.0 mg/kg/injection, schedule: Q04DX003 (ip), vehicle: carboxymethylcellulose (CMC)", "value": "214 % of control"}, {"measurement": "T/C", "setting": "dose: 800.0 mg/kg/injection, schedule: Q01DX011 (oral), vehicle: water", "value": "121 % of control"}, {"measurement": "T/C", "setting": "dose: 1000.0 mg/kg/injection, schedule: Q01DX001 (ip), vehicle: saline", "value": "164 % of control"}, {"measurement": "T/C", "setting": "dose: 1099.0 mg/kg/injection, schedule: Q01DX001 (ip), vehicle: carboxymethylcellulose (CMC)", "value": "160 % of control"}, {"measurement": "T/C", "setting": "dose: 1099.0 mg/kg/injection, schedule: Q04DX003 (ip), vehicle: carboxymethylcellulose (CMC)", "value": "244 % of control"}, {"measurement": "T/C", "setting": "dose: 1200.0 mg/kg/injection, schedule: Q01DX001 (oral), vehicle: water", "value": "115 % of control and 121 % of control"}, {"measurement": "T/C", "setting": "dose: 1200.0 mg/kg/injection, schedule: Q01DX005 (oral), vehicle: water", "value": "153 % of control and 180 % of control"}, {"measurement": "T/C", "setting": "dose: 1200.0 mg/kg/injection, schedule: Q01DX015 (oral), vehicle: carboxymethylcellulose (CMC)", "value": "100 % of control"}, {"measurement": "T/C", "setting": "dose: 1200.0 mg/kg/injection, schedule: Q07DX004 (oral), vehicle: water", "value": "119 % of control"}, {"measurement": "T/C", "setting": "dose: 1200.0 mg/kg/injection, schedule: Q## X003 (oral), vehicle: water", "value": "185 % of control"}, {"measurement": "T/C", "setting": "dose: 1832.0 mg/kg/injection, schedule: Q01DX001 (ip), vehicle: carboxymethylcellulose (CMC)", "value": "156 % of control"}, {"measurement": "T/C", "setting": "dose: 1832.0 mg/kg/injection, schedule: Q04DX003 (ip), vehicle: carboxymethylcellulose (CMC)", "value": "228 % of control"}, {"measurement": "T/C", "setting": "dose: 2400.0 mg/kg/injection, schedule: Q01DX001 (oral), vehicle: water", "value": "109 % of control"}, {"measurement": "T/C", "setting": "dose: 2400.0 mg/kg/injection, schedule: Q07DX004 (oral), vehicle: water", "value": "123 % of control"}, {"measurement": "T/C", "setting": "dose: 2400.0 mg/kg/injection, schedule: Q## X003 (oral), vehicle: water", "value": "189 % of control"}, {"measurement": "T/C", "setting": "dose: 2400.0 mg/kg/injection, schedule: Q## X006 (oral), vehicle: water", "value": "181 % of control"}]}]}
